Test results from US8022056B2, “Compositions and methods for the treatment of cancer” (Tautatis, Inc, priority 2006, dated 2011).
“And” between values parts separate entries of the source, which are not always exact repeats. Equal values may be shown once.

Experiments:
ERK2 = ERK2 (Homo sapiens, UniProt P28482); test: Kinase inhibition under standard conditions, ERK2; type: biochemical
GSK3 = test: Kinase inhibition under standard conditions, GSK3; type: biochemical
PKC = test: Kinase inhibition under standard conditions, PKC; type: biochemical
[1] = system: MDA-MB-231 breast cancer cell line; test: Long-term growth inhibition, crystal violet staining; type: cell-based, human
Method: The human estrogen receptor and EGF receptor negative MDA-MB-231 (HTB 26) breast cancer cell line (obtained from ATCC, Rockville, USA) were cultured in McCoy's 5A medium containing L-glutamine, 2.2 g/l NaHCO3 and 5% fetal calf serum. Cells were maintained in a water saturated atmosphere (95% air/5% carbon dioxide) at 37° C. in 75-cm^2 culture flasks, and were serially passaged following trypsinization using 0.05% trypsin/0.02% EDTA.
(§1) For proliferation assays tumor cell suspensions (100 μl/well) were seeded into 96-well flat bottomed microtitration plates at a density of ca. 15 cells/microscopic field (magnification 320×). After 2-3 days the culture medium was removed by suction and replaced by fresh medium (200 μl/well) containing varying concentrations of the compound of the formula 1 or vehicle (0.5% DMSO). Compound 1 was added as […] concentrated feed solutions. On every plate 16 wells served as controls and 16 wells were used per concentration of 1. After various times of incubation the cells were fixed with glutardialdehyde and stored in a refrigerator. At the end of the assay all plates were processed simultaneously (staining with 0.02% aqueous crystal violet solution (100 μl/well). Excess dye was removed by rinsing the trays with water for 20 min. The stain bound by the cells was redissolved in 70% ethanol (180 μl/well) while shaking the microplates for about 3 hours. Absorbance (proportional to cell mass) was measured at 578 nm using a BIOTEK 309 Autoreader. The results (mean values±standard deviation) were plotted as growth curves.

[2] = system: HT29 colon cancer cell line; test: as above; type: cell-based, human; details: 10 nM
Method: as §1
The HT29 human colon cancer cell line (obtained from ATCC, Rockville, USA) was cultured as above. Treatment with the compound of the formula 1 and analysis of growth inhibition was performed analogous to Example 3.

NCI-H23 xenograft = test: Mouse xenograft model NCI-H23; type: in vivo; details: Lung, Ras/p53; oral twice daily dosing
Method: (§2) The efficacy of the compound of the formula 1 was confirmed in mouse tumor xenograft models, employing the NMRI(nu/nu) strain of mice. For example, cells from the human tumor cell lines MDA-MB-231, U373, and HT29 were pre-incubated subcutaneously in several nude mice to select for the most robustly growing cell population. After having grown to a sufficient size after 2-3 weeks, a piece of about 2 mm^3 volume of the most suitable tumor was transplanted subcutaneously into the region of the thoracic mammary fat pads, an area ensuring a high degree of vascularization of the grafted tissue. […] During the course of the treatment, the weight of the animals and the size of the transplanted tumor was monitored three times a week. […] These doses are best determined separately for each individual mouse strain employed.
(§3) To establish a solid tumour 3×10^6 tumor cells suspended in 100 μl of serum free medium (RPMI) were inoculated subcutaneously into the region of the thoracic mammary fat pads of 5 Male NMRI(nu/nu) mice of 8-10 weeks of age. […] During the course of the treatment body weight changes and tumor growth were recorded three times a week. Growth curves were plotted together with standard deviations and the significance of differences was determined using an unpaired t-test in FIG. 11. […]

HT29 xenograft = test: Mouse xenograft model HT29; type: in vivo
Method: The efficacy of the compound of the formula 1 was confirmed in mouse tumor xenograft models, employing the NMRI(nu/nu) strain of mice. For example, cells from the human tumor cell lines MDA-MB-231, U373, and HT29 were pre-incubated subcutaneously in several nude mice to select for the most robustly growing cell population. After having grown to a sufficient size after 2-3 weeks, a piece of about 2 mm^3 volume of the most suitable tumor was transplanted subcutaneously into the region of the thoracic mammary fat pads, an area ensuring a high degree of vascularization of the grafted tissue. When tumors reached a diameter of about 3 mm mice were assigned to treatment groups with about equal average tumor sizes, and therapy was started. Application of the compound of the formula 1 was performed preferably by oral gavage twice daily for continuous exposure, with doses between 1 and 10 mg/kg of the compound of the formula 1 as a solid suspension in water, or in aqueous liquid formulations containing common adjuvants, like polyethylene glycols (PEG), preferentially in form of a salt with a physiologically applicable acid, including but not limited to hydrochloric acid, phosphoric acid, lactic acid, malonic acid, citric acid, etc. Other suitable adjuvants include but are not limited to polyvinyl pyrrolidone (Povidone) of varying average molecular weights. During the course of the treatment, the weight of the animals and the size of the transplanted tumor was monitored three times a week. For maximum efficacy, a daily treatment regimen was chosen at the maximally applicable dose, as defined by the absence of significant weight loss over the course of the treatment. These doses are best determined separately for each individual mouse strain employed.
To establish a solid tumour 3×10^6 tumor cells suspended in 100 μl of serum free medium (RPMI) were inoculated subcutaneously into the region of the thoracic mammary fat pads of 5 Male NMRI(nu/nu) mice of 8-10 weeks of age. After 3-4 weeks tumor bearing mice were killed by cervical dislocation and the tumor of one selected donor mouse was excised under sterile conditions. Vital tumor regions were cut into 2 mm^3 pieces, picked up by a trocar (13 ga), and transplanted subcutaneously into NMRI(nu/nu) of the same stock. The tumor grade of the transplanted tissue was checked by routine histopathology (HE staining). Tumor growth and body weight were registered weekly during tumor establishment. When subcutaneous tumors reached diameters of about 3 mm the animals were randomly assigned to a treatment and a vehicle control group, each consisting of 10-12 animals, and a therapeutic regimen was started comprising twice daily applications by oral gavage of 2.5 mg/kg of compound 1 in a vehicle of 50 mM (−)-lactic acid in 50% polyethylene glycol 400. During the course of the treatment body weight changes and tumor growth were recorded three times a week. Growth curves were plotted together with standard deviations and the significance of differences was determined using an unpaired t-test in FIG. 11. In untreated mice tumor areas had grown after 9 days by about 150%, while in the treated group average tumor areas had grown only by about 50% (P=0.012).

U251 xenograft = test: Mouse xenograft model U251; type: in vivo; details: Brain, CDKN2A/p53/PTEN; oral twice daily dosing
Method: as §2, §3

OVCAR-3 xenograft = test: Mouse xenograft model OVCAR-3; type: in vivo; details: Ovarian, p53; oral twice daily dosing
Method: as §2, §3

[3] = biological target: T1, ABC-G2 (breast cancer resistance protein BCRP) (Homo sapiens, UniProt Q9UNQ0); test: Competition with efflux of mitoxandrone in MCF-7 cells (FACS); type: cell-based
T1 construct: endogenous in cells; host or cells: MCF-7 cells
T1 sequence (Q9UNQ0 whole entry): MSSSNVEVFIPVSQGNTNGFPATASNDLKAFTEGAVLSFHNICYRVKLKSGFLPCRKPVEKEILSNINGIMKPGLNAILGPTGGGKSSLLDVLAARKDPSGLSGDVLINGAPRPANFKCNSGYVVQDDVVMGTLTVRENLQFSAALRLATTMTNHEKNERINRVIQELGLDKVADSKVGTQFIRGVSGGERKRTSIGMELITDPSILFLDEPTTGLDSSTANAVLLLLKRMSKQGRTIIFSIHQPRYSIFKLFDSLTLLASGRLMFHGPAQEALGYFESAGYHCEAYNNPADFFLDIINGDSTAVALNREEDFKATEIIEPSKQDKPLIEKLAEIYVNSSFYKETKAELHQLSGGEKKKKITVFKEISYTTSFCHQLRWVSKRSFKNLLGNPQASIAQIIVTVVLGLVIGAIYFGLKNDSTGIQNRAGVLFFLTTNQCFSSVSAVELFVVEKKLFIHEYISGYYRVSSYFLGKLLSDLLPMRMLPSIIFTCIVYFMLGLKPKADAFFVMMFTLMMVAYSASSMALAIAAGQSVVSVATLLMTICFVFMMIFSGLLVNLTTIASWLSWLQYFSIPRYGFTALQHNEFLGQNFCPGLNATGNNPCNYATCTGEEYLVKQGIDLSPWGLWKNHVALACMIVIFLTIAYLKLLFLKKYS
Excerpt: FIG. 6 compares the recognition of compound 1 and of the compound 6 by two frequently involved multi-drug resistance proteins ABC-B1 (glycoprotein gp170) (A), and ABC-G2 (breast cancer resistance protein BCRP) (B). Measurements were based on competition with the MDR-driven efflux of calcein-AM in Kb-V1 cells expressing high levels of gp170, or competition with the efflux of mitoxandrone in MCF-7 cells by the respective compounds within their effective concentration range. Uptake of fluorescent reporter compounds by competition with 1 or 6 was assessed by FACS as described in Mueller et al., Cancer Chemother. Pharmacol. 59, 157-164 (2007).

[4] = Colon, Raf/PI3K/p53/APC, 2.5 mg/kg p.o. twice daily, 30 days

ERK2, sequence (P28482 whole entry, species assumed): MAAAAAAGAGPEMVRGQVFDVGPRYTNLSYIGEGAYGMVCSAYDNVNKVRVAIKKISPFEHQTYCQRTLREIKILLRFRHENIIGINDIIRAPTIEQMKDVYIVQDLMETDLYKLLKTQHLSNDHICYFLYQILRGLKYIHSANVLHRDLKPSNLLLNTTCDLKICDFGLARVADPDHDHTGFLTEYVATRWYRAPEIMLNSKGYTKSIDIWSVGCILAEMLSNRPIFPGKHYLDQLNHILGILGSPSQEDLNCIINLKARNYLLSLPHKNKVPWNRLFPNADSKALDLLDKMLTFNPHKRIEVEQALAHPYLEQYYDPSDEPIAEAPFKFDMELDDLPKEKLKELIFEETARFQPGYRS

SMILES: CNC(=O)[C@@]1(N)C[C@H]2O[C@]1(C)n1c3ccccc3c3c4c(c5c6ccccc6n2c5c31)C(=O)NC4 [Compound 1]
- IC50 (ERK2): 0.064 µM
- IC50 (GSK3): 1.23 µM
- IC50 (PKC): 1.28 µM
- growth of MDA-MB-231 cells ([1]; 10 nM, 1 week of exposure): almost completely prevents the growth
- prolonged effect on growth after a single short exposure ([1]; MDA-MB-231, single exposure 1 to 6 hrs, 100 nM): sustained inhibition over at least one week
- anti-tumor activity compared with cis-platin ([1]; MDA-MB-231 growth): substantially more potent and efficacious
- anti-tumor activity compared with vinblastine ([1]; MDA-MB-231 growth): matches the activity of vinblastine
- proliferation of HT29 cells [2]: sufficient to block the proliferation
- Mean % Inhibition (NCI-H23 xenograft): 92%
- N tumors with no/neg. growth (NCI-H23 xenograft): 5 of 10
- signs of organ toxicity in heart, lung, kidney, liver, duodenum, and colon (HT29 xenograft; 30 days of continuous treatment, all 11 animals): complete absence of any signs of organ toxicity
- effect on body weight (HT29 xenograft; 30 days, 2.5 mg/kg p.o. twice daily): absence of any significant effect on body weight
- irritation in the mucosal layers of duodenum and colon tissues (HT29 xenograft; 30 days, oral route): absence of any signs of irritation
- Mean % Inhibition (HT29 xenograft; [4]): 70%
- N tumors with no/neg. growth (HT29 xenograft; [4]): 2 out of 10 and 2 of 11
- growth of average tumor areas in treated group (HT29 xenograft; after 9 days, 2.5 mg/kg p.o. twice daily): about 50%
- Mean % Inhibition (U251 xenograft): 74%
- N tumors with no/neg. growth (U251 xenograft): 3 of 11
- Mean % Inhibition (OVCAR-3 xenograft): 78%
- N tumors with no/neg. growth (OVCAR-3 xenograft): 4 of 11
- separation of anti-proliferative potency range from uptake concentration for efflux transporter, versus compound 6 [3]: more clearly separated
